# Experiments:
# [1] = test system: HT-1080; assay: Modulatory profiling: Alamar Blue viability, lethal compound cotreated with death modulator (EC50, AUC); assay type: cell-based; design: AUC, modulator HT.3MA / AUC, modulator HT.ALLN / AUC HT.ATA / AUC HT.ActD / AUC HT.BHA / AUC HT.BHT / AUC HT.BocD / AUC HT.CHX / AUC HT.Co2+ / AUC HT.DPQ / AUC HT.EGTA / AUC HT.Lmim / AUC HT.NAD+ / AUC HT.Nec-1 / AUC HT.SP600125 / AUC HT.TLCK / AUC HT.U0126: unit not given beside the values; details: for AUC HT.ATA: HT-1080, modulator ATA; for AUC HT.ActD: HT-1080, modulator ActD; for AUC HT.BHA: HT-1080, modulator BHA; for AUC HT.BHT: HT-1080, modulator BHT; for AUC HT.BocD: HT-1080, modulator BocD; for AUC HT.CHX: HT-1080, modulator CHX; for AUC HT.Co2+: HT-1080, modulator Co2+; for AUC HT.CspA: HT-1080, modulator CspA; for AUC HT.DPQ: HT-1080, modulator DPQ; for AUC HT.EGTA: HT-1080, modulator EGTA; for AUC HT.Gd3+: HT-1080, modulator Gd3+; for AUC HT.LNAME: HT-1080, modulator LNAME; for AUC HT.Lmim: HT-1080, modulator Lmim; for AUC HT.NAD+: HT-1080, modulator NAD+; for AUC HT.NMMA: HT-1080, modulator NMMA; for HT.atoc (AUC) / HT.bCarotene (AUC) / HT.deferox (AUC) / HT.digoxin (AUC) / HT.trolox (AUC) / HT.zVAD (AUC): HT-1080; for HT.atoc (AUC): modulator atoc; for HT.bCarotene (AUC): modulator bCarotene; for HT.deferox (AUC): modulator deferox; for HT.digoxin (AUC): modulator digoxin; for HT.trolox (AUC): modulator trolox; for HT.zVAD (AUC): modulator zVAD
# [2] = test system: BJeLR; assay: as above; assay type: cell-based, human; design: AUC, modulator BJ.Gd3+ / AUC, modulator BJ.LNAME / AUC, modulator BJ.Lmin / AUC, modulator BJ.3MA / AUC, modulator BJ.ALLN / AUC, modulator BJ.Boc D / AUC, modulator BJ.CHX / AUC, modulator BJ.Co2+ / AUC, modulator BJ.Nec-1 / AUC, modulator BJ.Pepstatin / AUC, modulator BJ.TLCK / AUC, modulator BJ.atoc / AUC, modulator BJ.trolox / AUC, modulator BJ.zVAD: unit not given beside the values; details: BJeLR cells, modulatory profile value (AUC); for AUC, modulator BJ.3MA: lethal compound cotreated with modulator 3MA; for AUC, modulator BJ.ALLN: lethal compound cotreated with modulator ALLN; for AUC, modulator BJ.Boc D: lethal compound cotreated with modulator Boc D; for AUC, modulator BJ.CHX: lethal compound cotreated with modulator CHX; for AUC, modulator BJ.Co2+: lethal compound cotreated with modulator Co2+; for AUC, modulator BJ.DPQ: lethal compound cotreated with modulator DPQ; for AUC, modulator BJ.Gd3+: lethal compound cotreated with modulator Gd3+; for AUC, modulator BJ.LNAME: lethal compound cotreated with modulator LNAME; for AUC, modulator BJ.Lmin/NAD+: lethal compound cotreated with modulator Lmin/NAD+; for AUC, modulator BJ.Lmin: lethal compound cotreated with modulator Lmin; for AUC, modulator BJ.NAD+: lethal compound cotreated with modulator NAD+; for AUC, modulator BJ.NMMA: lethal compound cotreated with modulator NMMA; for AUC, modulator BJ.Nec-1: lethal compound cotreated with modulator Nec-1; for AUC, modulator BJ.Pepstatin: lethal compound cotreated with modulator Pepstatin; for AUC, modulator BJ.TLCK: lethal compound cotreated with modulator TLCK
structure (smiles),measurement,setting,value
O=C(Oc1ccc(Cl)c2cccnc12)c1ccco1 [CIL58],AUC HT.ATA,[1],0.05141
same,AUC HT.ActD,[1],0.02044
same,AUC HT.BHA,[1],−0.03989
same,AUC HT.BHT,[1],−0.1355
same,AUC HT.BocD,[1],−0.02082
same,AUC HT.CHX,[1],−0.05674
same,AUC HT.Co2+,[1],0.09509
same,AUC HT.CspA,[1],0.06761
same,AUC HT.DPQ,[1],−0.005922
same,AUC HT.EGTA,[1],0.05184
same,AUC HT.Gd3+,[1],−0.004674
same,AUC HT.LNAME,[1],−0.09982
same,AUC HT.Lmim,[1],−0.07257
same,AUC HT.NAD+,[1],−0.06539
same,AUC HT.NMMA,[1],−0.09083
same,HT.atoc (AUC),[1],0.03305
same,HT.bCarotene (AUC),[1],0.08558
same,HT.deferox (AUC),[1],0.08912
same,HT.digoxin (AUC),[1],0.0229
same,HT.trolox (AUC),[1],−0.04791
same,HT.zVAD (AUC),[1],0.02459
same,"AUC, modulator BJ.3MA",[2],0.03403
same,"AUC, modulator BJ.ALLN",[2],0.01846
same,"AUC, modulator BJ.Boc D",[2],−0.007995
same,"AUC, modulator BJ.CHX",[2],−0.04911
same,"AUC, modulator BJ.Co2+",[2],0.2386
same,"AUC, modulator BJ.DPQ",[2],0.009922
same,"AUC, modulator BJ.Gd3+",[2],0.02131
same,"AUC, modulator BJ.LNAME",[2],−0.02811
same,"AUC, modulator BJ.Lmin/NAD+",[2],0.02713
same,"AUC, modulator BJ.Lmin",[2],−0.009172
same,"AUC, modulator BJ.NAD+",[2],0.02238
same,"AUC, modulator BJ.NMMA",[2],−0.05299
same,"AUC, modulator BJ.Nec-1",[2],0.0983
same,"AUC, modulator BJ.Pepstatin",[2],0.07532
same,"AUC, modulator BJ.TLCK",[2],0.1505
COc1ccccc1/C=C/C1(C(=O)NC2CCCC2)CC(=O)N1c1ccc(F)cc1 (stereo not shown) [CIL1],AUC HT.ATA,[1],−0.0478
same,AUC HT.ActD,[1],−0.04057
same,AUC HT.BHA,[1],0.02691
same,AUC HT.BHT,[1],−0.0849
same,AUC HT.BocD,[1],−0.01644
same,AUC HT.CHX,[1],0.09163
same,AUC HT.Co2+,[1],0.2048
same,AUC HT.CspA,[1],−0.04542
same,AUC HT.DPQ,[1],0.04203
same,AUC HT.EGTA,[1],−0.006602
same,AUC HT.Gd3+,[1],−0.03215
same,AUC HT.LNAME,[1],0.03977
same,AUC HT.Lmim,[1],0.08631
same,AUC HT.NAD+,[1],0.07889
same,AUC HT.NMMA,[1],−0.0482
same,AUC HT.Nec-1,"[1]; HT-1080, modulator Nec-1",0.02294
same,AUC HT.Pepstatin,"[1]; HT-1080, modulator Pepstatin",0.001474
same,AUC HT.SP600125,"[1]; HT-1080, modulator SP600125",−0.04919
same,AUC HT.TLCK,"[1]; HT-1080, modulator TLCK",0.04647
same,AUC HT.U0126,"[1]; HT-1080, modulator U0126",0.1491
same,HT.atoc (AUC),[1],0.216
same,HT.bCarotene (AUC),[1],−0.02846
same,HT.deferox (AUC),[1],0.08359
same,HT.digoxin (AUC),[1],−0.003809
same,HT.trolox (AUC),[1],0.02477
same,HT.zVAD (AUC),[1],−0.0551
same,"AUC, modulator HT.3MA","[1]; HT-1080 cells, lethal compound cotreated with modulator 3MA, modulatory profile value (AUC)",−0.001968
same,"AUC, modulator HT.ALLN","[1]; HT-1080 cells, lethal compound cotreated with modulator ALLN, modulatory profile value (AUC)",0.1053
same,"AUC, modulator BJ.3MA",[2],0.0947
same,"AUC, modulator BJ.ALLN",[2],−0.03319
same,"AUC, modulator BJ.Boc D",[2],−0.0465
same,"AUC, modulator BJ.CHX",[2],−0.08681
same,"AUC, modulator BJ.Co2+",[2],0.09572
same,"AUC, modulator BJ.DPQ",[2],−0.01655
same,"AUC, modulator BJ.Gd3+",[2],−0.001577
same,"AUC, modulator BJ.LNAME",[2],−0.02103
same,"AUC, modulator BJ.Lmin/NAD+",[2],−0.01947
same,"AUC, modulator BJ.Lmin",[2],−0.0142
same,"AUC, modulator BJ.NAD+",[2],0.03941
same,"AUC, modulator BJ.NMMA",[2],−0.02498
same,"AUC, modulator BJ.Nec-1",[2],0.0816
same,"AUC, modulator BJ.Pepstatin",[2],0.07639
same,"AUC, modulator BJ.TLCK",[2],0.01375
same,"AUC, modulator BJ.atoc",[2]; lethal compound cotreated with modulator atoc,0.05385
same,"AUC, modulator BJ.trolox",[2]; lethal compound cotreated with modulator trolox,0.08302
same,"AUC, modulator BJ.zVAD",[2]; lethal compound cotreated with modulator zVAD,−0.04705
O=S1(=O)Nc2c(ccc3cccnc23)-c2ccccc21 [CIL67],AUC HT.ATA,[1],0.08909
same,AUC HT.ActD,[1],0.06498
same,AUC HT.BHA,[1],−0.03558
same,AUC HT.BHT,[1],−0.1041
same,AUC HT.BocD,[1],−0.02378
same,AUC HT.CHX,[1],0.1458
same,AUC HT.Co2+,[1],0.03257
same,AUC HT.CspA,[1],0.01638
same,AUC HT.DPQ,[1],−0.01092
same,AUC HT.EGTA,[1],0.1234
same,AUC HT.Gd3+,[1],−0.01945
same,AUC HT.LNAME,[1],−0.007515
same,AUC HT.Lmim,[1],0.01912
same,AUC HT.NAD+,[1],−0.01795
same,AUC HT.NMMA,[1],−0.01349
same,HT.atoc (AUC),[1],0.05006
same,HT.bCarotene (AUC),[1],0.04657
same,HT.deferox (AUC),[1],0.1176
same,HT.digoxin (AUC),[1],−0.02175
same,HT.trolox (AUC),[1],−0.05687
same,HT.zVAD (AUC),[1],0.004996
same,"AUC, modulator BJ.3MA",[2],0.02312
same,"AUC, modulator BJ.ALLN",[2],0.02149
same,"AUC, modulator BJ.Boc D",[2],0.00578
same,"AUC, modulator BJ.CHX",[2],0.3083
same,"AUC, modulator BJ.Co2+",[2],0.03708
same,"AUC, modulator BJ.DPQ",[2],−0.005089
same,"AUC, modulator BJ.Gd3+",[2],0.0143
same,"AUC, modulator BJ.LNAME",[2],0.01177
same,"AUC, modulator BJ.Lmin/NAD+",[2],0.1599
same,"AUC, modulator BJ.Lmin",[2],−0.08787
same,"AUC, modulator BJ.NAD+",[2],−0.07272
same,"AUC, modulator BJ.NMMA",[2],−0.01601
same,"AUC, modulator BJ.Nec-1",[2],−0.02018
same,"AUC, modulator BJ.Pepstatin",[2],0.08703
same,"AUC, modulator BJ.TLCK",[2],0.06141

# Reference: patent publication US10947188B2, “Small molecule ferroptosis inducers” (THE TRUSTEES OF COLUMBIA UNIVERSITY IN THE CITY OF NEW YORK, priority 2016, dated 2021)
